# From ChEMBL document CHEMBL1121533, “Synthesis of 8-methoxy-15,16-dinor-6,8,10-trichothecatriene 12,13 alpha-epoxide and 12,13 beta-epoxide as potential antineoplastic agents” (J Med Chem, 1980)
# Activity calls are given as the source filed them. No cut-off for these calls is given here.
# Key:
# [1] = Tested for in vitro cytotoxic potency of compound in 9KB assay; assay type: cell-based; conditions: human, KB (9KB) cells; read-out: ED50 (the source's name)
# [2] = tested on: P388; test: Tested for in vivo antileukemic activity of compound against P388 at 12.5 mg/kg dose; NA means Not Active; assay type: functional, organism-based; parameters: dose 12.5 mg/kg; conditions: Mus musculus
# [3] = tested on: P388; test: Tested for in vivo antileukemic activity of compound against P388 at 25 mg/kg dose; NA means Not Active; assay type: functional, organism-based; parameters: dose 25 mg/kg; conditions: Mus musculus
# [4] = tested on: P388; test: Tested for in vivo antileukemic activity of compound against P388 at 50 mg/kg dose; NA means Not Active; assay type: functional, organism-based; parameters: dose 50 mg/kg; conditions: Mus musculus
smiles,measurement,setting,value
COc1ccc2c(c1)[C@@]1(C)CC[C@@H](O2)C12CC2,CC50,[1],26 µg/mL
same,ED50,[2],inactive
same,ED50,[3],inactive
same,ED50,[4],inactive
